# Laboratory results reported in ChEMBL document CHEMBL5579814, “Analogues of the pan-selectin antagonist rivipansel (GMI-1070)” (Eur J Med Chem, 2024).
# How the values were obtained:
# E-selectin [1] = target: T1, E-selectin (Homo sapiens, UniProt P16581); test: Binding affinity to E-selectin SCR2 domain (unknown origin) by isothermal titration calorimetry
# T1 sequence (P16581 whole entry): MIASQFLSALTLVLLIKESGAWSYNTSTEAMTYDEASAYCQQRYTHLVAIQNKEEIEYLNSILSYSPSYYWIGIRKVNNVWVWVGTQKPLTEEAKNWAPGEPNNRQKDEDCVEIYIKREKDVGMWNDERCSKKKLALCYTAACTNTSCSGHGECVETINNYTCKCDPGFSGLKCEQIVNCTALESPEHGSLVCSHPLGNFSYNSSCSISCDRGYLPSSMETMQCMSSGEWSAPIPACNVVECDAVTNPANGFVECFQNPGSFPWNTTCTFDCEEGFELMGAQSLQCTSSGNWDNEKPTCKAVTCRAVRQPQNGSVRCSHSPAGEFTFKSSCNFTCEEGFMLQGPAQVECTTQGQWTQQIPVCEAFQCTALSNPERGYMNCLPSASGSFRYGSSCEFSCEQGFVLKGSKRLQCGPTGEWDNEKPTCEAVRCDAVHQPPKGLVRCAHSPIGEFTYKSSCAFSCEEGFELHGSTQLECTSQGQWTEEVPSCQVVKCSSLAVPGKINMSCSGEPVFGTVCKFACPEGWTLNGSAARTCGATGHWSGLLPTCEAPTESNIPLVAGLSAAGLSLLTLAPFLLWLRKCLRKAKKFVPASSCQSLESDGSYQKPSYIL
# [2] = Inhibition of horseradish peroxidase coupled sialyl Lewisa-polyacrylamide polymer binding to human P-selectin/IgG chimera measured after 2 hrs in presence of TMB by colorimetric assay
# E-selectin [3] = target: T1, E-selectin; test: Binding affinity to sialyl LewisX mimetic 21a pretreated Blue-NHS-labelled E-selectin Lec-EGF/SCR1/SCR2 domain (unknown origin) measured after 20 mins by microscale thermophoresis
Compound,Kd (E-selectin [1]),IC50 [2],Kd (E-selectin [3])
C[C@@H]1O[C@@H](O[C@@H]2CCCC[C@H]2O[C@@H]2O[C@H](CO)[C@H](O)[C@H](O[C@@H](CC3CCCCC3)C(=O)O)[C@H]2O)[C@@H](O)[C@H](O)[C@@H]1O,60.7 µM,,
COC(=O)[C@@H]1C[C@H](NC(=O)c2cc(=O)[nH]c(=O)[nH]2)[C@@H](O[C@@H]2O[C@@H](C)[C@@H](O)[C@@H](O)[C@@H]2O)[C@H](O[C@@H]2O[C@H](CO)[C@H](O)[C@H](O[C@@H](CC3CCCCC3)C(=O)O)[C@H]2OC(=O)c2ccccc2)C1,,3390 µM,
CO[C@@H]1O[C@H](CO)[C@@H](O[C@@H]2O[C@H](CO)[C@H](O)[C@H](O[C@]3(C(=O)O)C[C@H](O)[C@@H](NC(C)=O)[C@H]([C@H](O)[C@H](O)CO)O3)[C@H]2O)[C@H](O[C@@H]2O[C@@H](C)[C@@H](O)[C@@H](O)[C@@H]2O)[C@H]1NC(C)=O,,≥ 7000 µM,738 µM
C[C@@H]1O[C@@H](O[C@@H]2[C@@H](NC(=O)c3cc(=O)[nH]c(=O)[nH]3)C[C@@H](C(=O)NCCNC(=O)COCCOCC(=O)Nc3cc(S(=O)(=O)O)cc4cc(S(=O)(=O)O)cc(S(=O)(=O)O)c34)C[C@H]2O[C@@H]2O[C@H](CO)[C@H](O)[C@H](O[C@@H](CC3CCCCC3)C(=O)O)[C@H]2OC(=O)c2ccccc2)[C@@H](O)[C@H](O)[C@@H]1O [RIVIPANSEL],,423 µM,

# More lines, in order of falling IC50 [2], values ahead:
Kd (E-selectin [1]),IC50 [2],Kd (E-selectin [3]),Compound
,210 µM,,CC[C@H]1C(C(=O)NCCCc2cn(CCCCC(=O)Nc3cc(S(=O)(=O)O)cc4cc(S(=O)(=O)O)cc(S(=O)(=O)O)c34)nn2)CC[C@@H](O[C@@H]2O[C@H](CO)[C@H](O)[C@H](O[C@@H](CC3CCCCC3)C(=O)O)[C@H]2OC(=O)c2ccccc2)[C@@H]1O[C@@H]1O[C@@H](C)[C@@H](O)[C@@H](O)[C@@H]1O (stereo partly drawn)
,94 µM,,CC[C@@H]1[C@@H](O[C@@H]2O[C@@H](C)[C@@H](O)[C@@H](O)[C@@H]2O)[C@H](O[C@@H]2O[C@H](CO)[C@H](O)[C@H](O[C@@H](CC3CCCCC3)C(=O)O)[C@H]2OC(=O)c2ccccc2)CC[C@@H]1C(=O)NCCCc1cn(CCC(=O)Nc2cc(S(=O)(=O)O)cc3cc(S(=O)(=O)O)cc(S(=O)(=O)O)c23)nn1
,82 µM,,CC[C@H]1C(C(=O)NCCCc2cn(CCCC(=O)Nc3cc(S(=O)(=O)O)cc4cc(S(=O)(=O)O)cc(S(=O)(=O)O)c34)nn2)CC[C@@H](O[C@@H]2O[C@H](CO)[C@H](O)[C@H](O[C@@H](CC3CCCCC3)C(=O)O)[C@H]2OC(=O)c2ccccc2)[C@@H]1O[C@@H]1O[C@@H](C)[C@@H](O)[C@@H](O)[C@@H]1O (stereo partly drawn)
